# Test results reported in patent US20250059233A1, “USE OF THERAPEUTIC PEPTIDES” (Viage Therapeutics Inc., priority 2021, published 2025).
# Structures can show the parent of a compound that is named as a salt. No end group written: not given here.
# Assays:
# Male ICR mice = assay: Step-down inhibitory avoidance test, scopolamine-induced memory impairment; type: in vivo; conditions: 1.5 mg/kg oral gavage once a day for 21 days; scopolamine 2 mg/kg i.p.; vs model group, P<0.01
# Procedure: Male ICR mice, aged 4-5 weeks were used in the study.
# The study was performed in step-down inhibitory avoidance equipment with dimensions 12 cm×2 cm×18 cm in each chamber (Model: YLS-3T, Shandong Yiyan Technology Co., LTD., China). The bottom of each chamber was covered with a copper grid that can be electrified. A rubber platform was placed in the right corner of each chamber.
# Male ICR mice in each group were treated by oral gavage once a day for 21 days with the vehicle, Donepezil Hydrochloride (1.5 mg/kg), and the peptide […] (SEQ ID NO:2) (0.3, 10 mg/kg), respectively. Two hours after the last administration, scopolamine hydrobromide (2 mg/kg) was injected intraperitoneally to induce memory impairment.
# Fifty male ICR mice were divided into 5 groups according to the average of body weight, 10 mice in each group, as detailed in Table 1. […]
# Evaluation period: 24 h after the training period, the mice were placed on the rubber platform and evaluated for 5 minutes. The latency of the first jump from the platform to the copper grid was observed and counted, and the latency in seconds was analyzed to evaluate memory improvement.
# All results were given as mean±SEM, and the data differences between groups were analyzed by t-test for the paired comparisons using the GraphPad Prism 8 statistical package (GraphPad Software Inc., San Diego, CA, USA). […]
# AVPR1A, AVPR1B, AVPR2 = assay: Tail suspension test (TST) with vasopressin receptor inhibitors; type: in vivo
# healthy subjects = conditions: human, in vivo
# Procedure: A Phase 1a/1b, randomized, placebo-controlled, crossover study with the peptide [sequence] (SEQ ID NO:2) in healthy subjects was performed. The study population included men and women in good general health.
# A single ascending dose (SAD) group included four cohorts receiving 60 mg/day (cohorts SAD1 and SAD2). 180 mg/day (cohort SAD3), or 540 mg/day (cohort SAD4) of the peptide or placebo. A multiple ascending dose (MAD) group included three cohorts receiving 60 mg/day (cohort MAD1), 180 mg/day (cohort MAD2), or 540 mg/day (cohort MAD3) of the peptide or placebo for seven days. All doses were administered orally.
# [1] = inhibitor given with the peptide
compound,measurement,setting,value
COc1cc2c(cc1OC)C(=O)C(CC1CCN(Cc3ccccc3)CC1)C2 (centres unmarked) [Donepezil Hydrochloride],latency of the first jump from the platform (step-down),Male ICR mice,significantly longer than the model group
Cc1nc2c([nH]1)-c1ccccc1N(C(=O)c1ccc(NC(=O)c3ccccc3-c3ccccc3)cc1)CC2 [conivaptan],blocking of LSSTQAQQSY activity in a tail suspension test,"AVPR1A, AVPR1B, AVPR2; [1]",blocks
same,blocking of LSSTQAQQSY activity in a tail suspension test,"AVPR1A, AVPR1B, AVPR2; low doses of the inhibitor",blocks
Cc1ccccc1C(=O)Nc1ccc(C(=O)N2CCCC(O)c3cc(Cl)ccc32)c(C)c1 (centres unmarked) [tolvaptan],blocking of LSSTQAQQSY activity in a tail suspension test,"AVPR1A, AVPR1B, AVPR2; [1]",does not block
LSSTQAQQSY,"vital signs, electrocardiography (ECG) data, and physical examinations",healthy subjects,normal
